Source: patent publication US20250277030A1, “ANTI-NAPI2B ANTIBODIES AND METHODS OF USE” (Zymeworks BC Inc., priority 2022, published 2025)

Tests used:
[1] = biological target: T1, human NaPi2b (Homo sapiens, UniProt O95436); experiment: Competition binding (epitope binning) by flow cytometry on HEK293-6e cells expressing human NaPi2b; conditions: unlabeled competitor antibody 100 μg/mL, GFP- population
T1 construct: host or cells: HEK293-6e
T1 sequence (O95436 1-690): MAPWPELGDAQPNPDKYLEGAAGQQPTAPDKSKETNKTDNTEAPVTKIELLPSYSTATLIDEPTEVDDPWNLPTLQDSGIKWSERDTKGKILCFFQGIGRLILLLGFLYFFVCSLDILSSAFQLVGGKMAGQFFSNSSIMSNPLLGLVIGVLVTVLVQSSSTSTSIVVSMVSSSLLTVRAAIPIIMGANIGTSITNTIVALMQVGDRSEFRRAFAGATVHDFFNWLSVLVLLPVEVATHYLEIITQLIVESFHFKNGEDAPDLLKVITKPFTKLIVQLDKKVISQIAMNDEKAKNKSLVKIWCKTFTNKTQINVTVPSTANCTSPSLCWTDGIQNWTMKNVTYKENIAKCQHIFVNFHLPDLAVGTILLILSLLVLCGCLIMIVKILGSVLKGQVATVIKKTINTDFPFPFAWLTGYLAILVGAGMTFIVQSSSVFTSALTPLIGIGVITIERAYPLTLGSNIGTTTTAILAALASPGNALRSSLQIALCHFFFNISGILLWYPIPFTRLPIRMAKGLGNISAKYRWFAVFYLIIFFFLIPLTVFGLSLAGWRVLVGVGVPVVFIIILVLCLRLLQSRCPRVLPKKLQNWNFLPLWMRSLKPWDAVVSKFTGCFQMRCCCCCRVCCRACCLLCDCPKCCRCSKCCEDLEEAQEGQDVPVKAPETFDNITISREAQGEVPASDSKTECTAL
Procedure: Binding was assessed by flow cytometry using HEK293-6e cells as described below.
HEK293-6e cells were transfected for ˜24 hours to transiently express human NaPi2b (1 μg of pTT5-NaPi2b per 1 million cells) or transfected with GFP (ATUM, Menlo Park, CA; pD2610-v23, also 1 μg of DNA per 1 million cells). Following transfection, human NaPi2b-expressing HEK296-6e cells and transfected GFP-expressing HEK296-6e cells were mixed at 4:1 ratio. Each well of a V-bottom 96-well plate was seeded with 100,000 cells of the mixture and incubated with 100 μg/mL of unlabeled competitor anti-NaPi2b antibody for an hour on ice. Post incubation, cells were washed and stained with 1 μg/mL of AF647-conjugated anti-NaPi2b detection antibodies for an hour on ice. Following staining and washing, fluorescence was detected by flow cytometry on a BD LSRFortessa™ Cell Analyzer (BD Biosciences, Franklin Lake, NJ) with 10,000 minimum events collected per well. The AF647/APC-A GeoMean (fluorescence signal geometric mean, proportional to anti-Human AF647 binding) was calculated for the FITC/GFP negative live cell population and using FlowJo™ Version 10.8.1 (BD Biosciences, Franklin Lake, NJ). Percentage inhibition was calculated using the following formula: […]

[2] = test system: cynomolgus NaPi2b; experiment: Flow cytometry binding to HEK293-6e cells transfected with cynomolgus NaPi2b (Example 5); conditions: transfected HEK293-6e cells, 18-24 hours at 4° C.
Procedure: The binding cross-reactivity of humanized antibody variant v29456 to human, cynomolgus and mouse NaPi2b was assessed by flow cytometry using HEK293-6e transfected cells.
Briefly, HEK293-6e cells were transfected for ˜24 hours to transiently express human NaPi2b, cynomolgus or mouse NaPi2b, at 1 μg of DNA per 1 million cells. Following transfection, 50,000 cells per well were seeded in V-bottom 96-well plates and incubated with 200 nM of primary antibody for 18-24 hours at 4° C. to prevent internalization. Post-incubation, cells were washed and stained with anti-Human IgG Fc AF647 conjugate (Jackson Immuno Research Labs, West Grove, PA, Cat. No. 109-605-098, Lot. No. 124868) at 4° C. for 1 hour. Following staining and washing, fluorescence was detected by flow cytometry on BD LSRFortessa™ Cell Analyzer (BD Biosciences, Franklin Lake, NJ) with 10,000 minimum events collected per well. The AF647/APC-A GeoMean (fluorescence signal geometric mean, proportional to anti-Human AF647 binding) was calculated for the live singlet cell population for each primary antibody using FlowJo™ v8 software (BD Biosciences, Franklin Lake, NJ). The Bmax and Kd of each primary antibody were calculated using GraphPad Prism Version 9 (GraphPad Software, San Diego, CA)

[3] = test system: IGROV-1 cells; experiment: In vitro cytotoxicity, 2D monolayer, CellTiter-Glo, IGROV-1; assay type: cell-based, human; conditions: IGROV-1, 4 days
Procedure: (§1) The cytotoxicity as measured by cell growth inhibition of the humanized variant v29456 (H1L2) conjugated to various drug-linkers were assessed in a panel of NaPi2b-expressing cell lines as described below. Cell lines used were OVCAR-3 (ovarian carcinoma), IGROV-1 (ovarian carcinoma), and HCC-78 (lung carcinoma). ADCs with antibody palivizumab (anti-RSV) (v22277) were used as non-targeted controls.
(§2) OVCAR-3 were cultured in RPMI 1640 Medium, ATCC modification (Thermo Fisher Scientific, Waltham, MA) supplemented with 20% fetal bovine serum (FBS) (Thermo Fisher Scientific, Waltham, MA) and 0.01 μg/mL human insulin (Sigma-Aldrich, Oakville, ON). […] After incubation, CellTiter-Glo® reagent (Promega Corporation, Madison, WI) was added in all wells and luminescence corresponding to ATP present in each well was measured using a Synergy™H1 plate reader (BioTek Instruments, Winooski, VT). Percent cytotoxicity values were calculated by the following formula: (1−(Luminescence of Treated Cells/Average Luminescence of Untreated Cells))×100, and plotted against test article concentration using GraphPad Prism 9 software (GraphPad Software, San Diego, CA). EC50 values were calculated based on a non-linear regression log(agonist) versus response, variable slope (four parameters) by GraphPad Prism 9.

[4] = test system: OVCAR-3 cells; experiment: In vitro cytotoxicity, 2D monolayer, CellTiter-Glo, OVCAR-3; assay type: cell-based, human; conditions: OVCAR-3, 4 days; IC = Incomplete Curve
Procedure: as §1, §2

[5] = test system: HCC-78 cells; experiment: In vitro cytotoxicity, 2D monolayer, CellTiter-Glo, HCC-78; assay type: cell-based, human; conditions: HCC-78, 4 days
Procedure: as §1, §2

Sequence of cynomolgus NaPi2b (as listed by the source): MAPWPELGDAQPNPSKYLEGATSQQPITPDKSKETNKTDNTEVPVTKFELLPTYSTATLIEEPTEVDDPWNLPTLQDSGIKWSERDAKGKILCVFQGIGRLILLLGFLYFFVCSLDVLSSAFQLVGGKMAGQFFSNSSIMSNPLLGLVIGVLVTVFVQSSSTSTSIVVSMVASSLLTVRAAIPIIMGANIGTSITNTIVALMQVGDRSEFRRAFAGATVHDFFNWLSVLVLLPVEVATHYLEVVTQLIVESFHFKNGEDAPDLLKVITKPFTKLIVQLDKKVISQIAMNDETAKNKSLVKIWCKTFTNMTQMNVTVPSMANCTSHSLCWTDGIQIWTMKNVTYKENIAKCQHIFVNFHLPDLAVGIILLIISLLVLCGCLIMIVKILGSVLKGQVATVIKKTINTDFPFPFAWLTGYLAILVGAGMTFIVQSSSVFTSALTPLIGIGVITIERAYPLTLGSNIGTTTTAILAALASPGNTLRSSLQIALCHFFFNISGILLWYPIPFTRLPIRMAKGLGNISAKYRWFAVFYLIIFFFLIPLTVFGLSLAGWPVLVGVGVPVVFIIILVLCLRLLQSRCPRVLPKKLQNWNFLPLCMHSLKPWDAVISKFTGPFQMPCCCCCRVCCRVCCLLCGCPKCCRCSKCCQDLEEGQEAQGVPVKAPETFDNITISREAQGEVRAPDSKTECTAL

| Substance | Bmax (APC-A GeoMean), Cyno NaPi2b [2] | EC50 [3] [nM] | EC50 [4] [nM] | EC50 [5] [nM] | further results |
| --- | --- | --- | --- | --- | --- |
| v16955: Palivizumab (anti-RSV), negative control antibody in the competition binding | – | – | – | – | % Inhibition vs. irrelevant mAb, labeled detection antibody v16955 (negative control) ([1]; labeled detection antibody v16955 1 μg/mL): 0%; % Inhibition vs. irrelevant mAb, labeled detection antibody v18992 (MX35) ([1]; labeled detection antibody v18992 1 μg/mL): 0%; % Inhibition vs. irrelevant mAb, labeled detection antibody v18993 (lifastuzumab) ([1]; labeled detection antibody v18993 1 μg/mL): 0%; % Inhibition vs. irrelevant mAb, labeled detection antibody v23855 ([1]; labeled detection antibody v23855 1 μg/mL): 0% |
| v18992: anti-NaPi2b reference humanized antibody MX35 [reference compound] | 2,365 APC-A GeoMean | – | – | – | – |
| v18993: anti-NaPi2b reference humanized antibody lifastuzumab [reference compound] | 1,557 APC-A GeoMean | – | – | – | – |
| v22277-DL1: non-targeted control ADC of palivizumab v22277 with MC-GGFG-AM-DXd1 (DL1), DAR 8 | – | > 50 | > 50 | > 50 | – |
| v22277-DL3: non-targeted control ADC of palivizumab v22277 with MC-VC-PABC-MMAE (DL3), DAR 4 | – | 7.02 | 9.4 | 11.4 | – |
